Measured values as given in US20230301972A1, “ANTI-FIBROTIC COMPOSITION AND RELATED METHODS” (Fred Hutchinson Cancer Center, priority 2020, published 2023).

What was measured:
LX2 cells [1] = test: qPCR of TGF-β-induced gene expression in LX2 cells; type: cell-based, human
Method: (§1) LX2 cells were obtained from Sigma Aldrich (Cat #SCC064). LX2 cells were grown at 37° C. under 5% CO2, 95% ambient atmosphere and maintained in Dulbecco's […] (DMEM) supplemented with 10% FBS (Sigma) and 1% Penn Strep.
(§2) FIGS. 10B and 10C: LX2 cells were incubated with TGF-β alone at 6.5 ng/ml or TGF-β with indicated drugs for 48 hours. Total cellular RNA was isolated using a RNeasy Mini Kit (QIAGEN). 1 μg of total RNA was reverse transcribed into first-strand cDNA using an RT2 First Strand Kit (QIAGEN). The resultant cDNA was subjected to qPCR using indicated human primers to measure the changes in mRNA expression of indicated human genes.

[2] = tested on: Human lung fibroblasts (LL47); test: qPCR of TGF-β-induced gene expression in human lung fibroblasts LL47; type: cell-based; conditions: OSI-632 1 mM as printed; LL47, 24 hours
Method: (§3) IPF-LL29, IPF-LL97A, and human lung fibroblast LL47 cell lines were purchased from ATCC. Mouse lung fibroblasts were isolated from the lungs of male C57BL/6J mice. Cells were grown at 37° C. under 5% CO2, 95% ambient atmosphere and maintained in Dulbecco's […] (DMEM) supplemented with 10% FBS (Sigma) and 1% Penn Strep.
(§4) FIGS. 3A and 3B. Human lung fibroblast LL47 and mouse primary lung fibroblasts isolated from mouse lungs were incubated with TGF-β alone at 5 ng/ml or TGF-β with indicated drugs for 24 hours. Same method as outlined in FIGS. 2A and 2B was used to measure the mRNA expression of indicated human or mouse genes.

FGFR = test: Kinome-profiling, FGFR; type: biochemical; conditions: at 500 nM
LX2 cells [3] = test: Live cell wound healing assay in LX2 cells; type: cell-based, human; conditions: 1 μM; TGFb 6.5 ng/ml; wound closure density at 50 hour
Method: as §1
FIG. 10A: LX2 cells were plated on 96-well plates (Essen Image Lock, Essen Instruments). […] Wound closure was monitored with Incucyte Live-Cell Imaging System and software (Essen Instruments) every 2-4 hours for 72 hours. The mean relative wound density of at least three biological replicates was calculated. The wound density correlates with the cell motility. Plotted is the wound closure density at 50 hour.

SMAD2 phosphorylation = test: Immunoblot of TGF-β-mediated SMAD2 phosphorylation in LX2 cells; type: cell-based, human
[4] = tested on: IPF-LL29 and IPF-LL97A cells; test: qPCR of TGF-β-induced gene expression in IPF-LL29 and IPF-LL97A cells; type: cell-based, human; conditions: human lung fibroblast cell lines derived from IPF patients
Method: as §3
as §2, with “2A” for “10B”, “2B. IPF-29 (FIG. 2A) or IPF-97A (FIG. 2B)” for “10C: LX2”, “5” for “6.5”, “hours and 5 days.” for “hours.”

CCl4-induced fibrosis [5] = test: Carbon tetrachloride (CCl4)-induced liver fibrosis mouse model; type: in vivo
Method: FIGS. 11A and 11B. Male C57BL/6J mice between 6-8 week old were used in the study. Mice were treated with intraperitoneal injection of 0.5 μl carbon tetrachloride (CCl4) per gram body weight, dissolved in corn oil at a ratio of 1:3, twice a week (Tuesdays and Saturdays) for 5.5 weeks or corn oil control only. […] At the end of the study, livers were either snap frozen or fixed in 10% formalin and stained for H&E, Masson Trichrome (FIG. 11A) and Ki67 (FIG. 11B).
Total RNA was extracted from the snap frozen liver tissue in TRIzol™ Reagent by Omni Bead Ruptor homogenizer. 1 μg of total RNA was reverse transcribed into first-strand cDNA using an RT2 First Strand Kit (QIAGEN). The resultant cDNA was subjected to qPCR using indicated mouse primers to measure the changes in mRNA expression of indicated mouse genes (FIG. 11A and FIG. 11C).
FIG. 12A: Total protein was extracted from the snap frozen liver tissue in T-PER™ Tissue Protein Extraction Reagent by Omni Bead Ruptor homogenizer. Changes in the phosphorylation levels of indicated proteins were detected in the liver homogenates from the CCl4 in vivo studies by reverse-phase protein array.
FIG. 12B: pSTAT3 levels were detected in the fixed […] tissue by immunohistochemistry. Intensity of staining was quantified by HALO imaging software.

CCl4-induced fibrosis [6] = test: as above; type: in vivo; conditions: vs CCl4-only treated mouse livers tissues; RPPA, IHC
TGFBR1/2 = test: Kinome-profiling, TGFBR1/2; type: biochemical; conditions: at 500 nM
mouse lung fibroblasts = test: qPCR of TGF-β-induced gene expression in mouse primary lung fibroblasts; type: cell-based; conditions: TGF-β 5 ng/ml, 24 hours
Method: as §3, §4

SMAD2/3 = test: SMAD firefly luciferase TGF-β reporter assay in IPF-LL29 cells; type: cell-based, human; conditions: TGF-β 5 ng/ml, 24 hour
Method: as §3
FIG. 1A. A TGF-β reporter cell line was generated by transducing a SMAD firefly luciferase reporter (Cellomics Tech, Cat #PLV-10099-50) into IPF-LL29 cells. […] 24 hours later, luciferase substrate was added to the cells and luciferase signal was measured by Bright-Glo reagent (Promega) using a luminescent plate reader. The intensity of the signal correlates with the activity of SMAD2/3.

VEGFR = test: Kinome-profiling, VEGFR; type: biochemical; conditions: at 500 nM

How did the “expression of integrins (ITGAV and ITGB6) and HSC proliferation stimuli TGFB2, PDGFA, PDGFB, CTGF, VEGFA, and CCL5” value (LX2 cells [1]) turn out when `NC(=O)c1c(OCc2c(F)cc(Br)cc2F)nsc1NC(=O)NCCCCN1CCCC1` [OSI-632, 3-(4-bromo-2,6-difluoro-benzyloxy)-5-[3-(4-pyrrolidin-1-yl-butyl)-ureido]-isothiazole-4-carboxylic acid amide] was run?
The value was “significant decrease”.

And the “inhibition of expression of COL1A1 (FIG. 10C)” value (LX2 cells [1])?
The value was 2 fold.

What about the “inhibition of expression of COL1A2 (FIG. 10C)” value (LX2 cells [1]) of the same compound?
Its value is 3 fold.

And the “inhibition of expression of COL5A1 (FIG. 10C)” value (LX2 cells [1])?
Its value is 5 fold.

What about the “decrease in TGF-β-induced expression of COL1A1 (FIG. 10B)” value (LX2 cells [1]; 48 hours) of the same compound?
Its value is 2 fold.

What about the “decrease in TGF-β-induced expression of αSMA (FIG. 10B)” value (LX2 cells [1]; 48 hours) of the same compound?
Its value is 2 fold.

What about the “TGFb-induced expression of COL1A1, ACTA2, and FN1 and of indicated proliferation stimuli” value [2] of the same compound?
Its value is “inhibited”.

And the “inhibition of FGFR” value (FGFR)?
Its value is 90%.

And the “TGF-β-induced motility of LX2 cells” value (LX2 cells [3])?
The value was “significantly decreased”.

And the “activation of TGF-β-mediated SMAD2 phosphorylation (immunoblot)” value (SMAD2 phosphorylation)?
The value was “blocks activation”.

And the “TGF-β-induced expression of myofibroblast activation markers αSMA, COL1A1, COL3A1 and FN1” value ([4]; 48 hours and 5 days)?
Its value is “decreased”.

What about the “expression of myofibroblast proliferation stimuli TGFB1, CTGF, IL-11, FGF2 and VEGFA” value ([4]; TGF-β 5 ng/ml) of the same compound?
The value was “significant decrease”.

And the “carbon tetrachloride (CCl4)-induced fibrosis” value (CCl4-induced fibrosis [5]; 80 mg/Kg thrice/week oral gavage, 3 weeks, mice, preliminary data)?
Its value is “significant decrease”.

And the “hepatocyte regeneration measured by Ki67 staining” value (CCl4-induced fibrosis [5]; livers treated with OSI-632)?
Its value is “increased hepatocyte regeneration”.

And the “CCl4-induced expression of HSC activation marker Acta2 and proliferation stimuli such as Tgfb2” value (CCl4-induced fibrosis [5]; mouse liver, qPCR)?
The value was “reverse”.

And the “reversal of CCl4-induced expression of Loxl1” value (CCl4-induced fibrosis [5]; mouse liver, qPCR)?
Its value is 2 fold.

And the “reversal of CCl4-induced expression of Timp1” value (CCl4-induced fibrosis [5]; mouse liver, qPCR)?
Its value is 5 fold.

What about the “reversal of CCl4-induced expression of Timp2” value (CCl4-induced fibrosis [5]; mouse liver, qPCR) of the same compound?
Its value is 2 fold.

What about the “reversal of CCl4-induced expression of Timp3” value (CCl4-induced fibrosis [5]; mouse liver, qPCR) of the same compound?
Its value is about 2 fold.

What about the “mRNA expression of Col1a1 (qPCR) and protein level of collagen 1 (RPPA), liver” value (CCl4-induced fibrosis [5]; vs CCl4-only treated controls) of the same compound?
The value was “significantly decreased”.

What about the “collagen deposition (Masson trichome staining), liver” value (CCl4-induced fibrosis [5]; vs CCl4 only treated mice) of the same compound?
The value was “significant reduction”.

And the “CCl4-induced phosphorylation of Smad2, Pdgfrb, Fgfr, Src, Nfκβ, and STAT3” value (CCl4-induced fibrosis [6])?
Its value is “significantly decreased”.

What about the “inhibition of TGFBR1/2” value (TGFBR1/2) of the same compound?
The value was 91%.

And the “expression of indicated fibroblast activation and proliferation factors” value (mouse lung fibroblasts)?
Its value is “inhibited expression”.

And the “SMAD2/3 activity (luciferase reporter, dose response)” value (SMAD2/3)?
Its value is “inhibited SMAD2/3 activity”.

What about the “inhibition of VEGFR” value (VEGFR) of the same compound?
The value was about 75%.
